Reference: PubChem BioAssay (NCI)
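In this assay, cells in 96-well plates receive the compound at five concentrations for 48 hours. Endpoints are linearly interpolated between the surrounding concentrations. The concentration for 50% growth inhibition is given as GI50. TGI denotes the concentration required for complete inhibition of growth.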 The source made the active and inactive calls. Rule as the data show it: active = GI50 below about 0.43 µM; inactive = the rest.

Tests used:
Assay in all cases: growth of human tumour cells (NCI), 48 h
HCT-116 colon = tested on: HCT-116 colon
SF-539 CNS = tested on: SF-539 CNS
OVCAR-5 ovarian = tested on: OVCAR-5 ovarian
NCI-H23 lung = tested on: NCI-H23 lung
SNB-19 CNS = tested on: SNB-19 CNS
SK-MEL-28 melanoma = tested on: SK-MEL-28 melanoma
KM12 colon = tested on: KM12 colon
RPMI-8226 leukemia = tested on: RPMI-8226 leukemia
EKVX NSCLC = tested on: EKVX NSCLC
SF-295 CNS = tested on: SF-295 CNS
SNB-75 CNS = tested on: SNB-75 CNS
HOP-62 NSCLC = tested on: HOP-62 NSCLC
MOLT-4 leukemia = tested on: MOLT-4 leukemia
M14 melanoma = tested on: M14 melanoma
KM20L2 colon = tested on: KM20L2 colon
786-0 renal = tested on: 786-0 renal
COLO 205 colon = tested on: COLO 205 colon
LXFL 529 NSCLC = tested on: LXFL 529 NSCLC
UACC-62 melanoma = tested on: UACC-62 melanoma
M19-MEL melanoma = tested on: M19-MEL melanoma
RXF 393 renal = tested on: RXF 393 renal
NCI-H226 lung = tested on: NCI-H226 lung
UO-31 renal = tested on: UO-31 renal
HL-60(TB) leukemia = tested on: HL-60(TB) leukemia
K-562 leukemia = tested on: K-562 leukemia
OVCAR-8 ovarian = tested on: OVCAR-8 ovarian
HOP-18 NSCLC = tested on: HOP-18 NSCLC
A549 NSCLC = tested on: A549 NSCLC
SNB-78 CNS = tested on: SNB-78 CNS
SK-MEL-5 melanoma = tested on: SK-MEL-5 melanoma
OVCAR-3 ovarian = tested on: OVCAR-3 ovarian
U251 CNS = tested on: U251 CNS
SN12C renal = tested on: SN12C renal
MALME-3M melanoma = tested on: MALME-3M melanoma
TK-10 renal = tested on: TK-10 renal
SK-OV-3 ovarian = tested on: SK-OV-3 ovarian
NCI-H460 lung = tested on: NCI-H460 lung
IGROV1 ovarian = tested on: IGROV1 ovarian
ACHN renal = tested on: ACHN renal
SK-MEL-2 melanoma = tested on: SK-MEL-2 melanoma
HCC-2998 colon = tested on: HCC-2998 colon
UACC-257 melanoma = tested on: UACC-257 melanoma
LOX IMVI melanoma = tested on: LOX IMVI melanoma
MDA-MB-231 breast = tested on: MDA-MB-231 breast
T-47D breast = tested on: T-47D breast
HT29 colon = tested on: HT29 colon
HS 578T breast = tested on: HS 578T breast
HOP-92 NSCLC = tested on: HOP-92 NSCLC
SW-620 colon = tested on: SW-620 colon
NCI/ADR-RES ovarian = tested on: NCI/ADR-RES ovarian
DU-145 prostate = tested on: DU-145 prostate
DLD-1 colon = tested on: DLD-1 colon
PC-3 prostate = tested on: PC-3 prostate
MCF7 breast = tested on: MCF7 breast
CAKI-1 renal = tested on: CAKI-1 renal
CCRF-CEM leukemia = tested on: CCRF-CEM leukemia
SF-268 CNS = tested on: SF-268 CNS
MDA-MB-435 = tested on: MDA-MB-435

CC[N-]c1nnnn1CC.[Au+].c1ccc([PH+](c2ccccc2)c2ccccc2)cc1
GI50 (HCT-116 colon): 1550 nM
TGI (HCT-116 colon): 2900 nM
GI50 (SF-539 CNS): 2100 nM
TGI (SF-539 CNS): 5790 nM
GI50 (OVCAR-5 ovarian): 4500 nM
TGI (OVCAR-5 ovarian): 9160 nM
GI50 (NCI-H23 lung): 1390 nM
TGI (NCI-H23 lung): 3010 nM
GI50 (SNB-19 CNS): 1440 nM
TGI (SNB-19 CNS): 2760 nM
GI50 (SK-MEL-28 melanoma): 677 nM
TGI (SK-MEL-28 melanoma): 2160 nM
GI50 (KM12 colon): 2930 nM
TGI (KM12 colon): 11600 nM
GI50 (RPMI-8226 leukemia): 568 nM
TGI (RPMI-8226 leukemia): 4480 nM
GI50 (EKVX NSCLC): 1700 nM
TGI (EKVX NSCLC): 4040 nM
GI50 (SF-295 CNS): 3090 nM
TGI (SF-295 CNS): 10000 nM
GI50 (SNB-75 CNS): 1350 nM
TGI (SNB-75 CNS): 3460 nM
GI50 (HOP-62 NSCLC): 2070 nM
TGI (HOP-62 NSCLC): 3720 nM
GI50 (MOLT-4 leukemia): 716 nM
TGI (MOLT-4 leukemia): 3740 nM
GI50 (M14 melanoma): 1290 nM
TGI (M14 melanoma): 2790 nM
GI50 (KM20L2 colon): 2000 nM
TGI (KM20L2 colon): 12900 nM
GI50 (786-0 renal): 1370 nM
TGI (786-0 renal): 2670 nM
GI50 (COLO 205 colon): 2190 nM
TGI (COLO 205 colon): 5400 nM
GI50 (LXFL 529 NSCLC): 723 nM
TGI (LXFL 529 NSCLC): 2040 nM
GI50 (UACC-62 melanoma): 1200 nM
TGI (UACC-62 melanoma): 3180 nM
TGI (M19-MEL melanoma): 4240 nM
GI50 (RXF 393 renal): 242 nM
TGI (RXF 393 renal): 801 nM
GI50 (NCI-H226 lung): 1440 nM
TGI (NCI-H226 lung): 3200 nM
GI50 (UO-31 renal): 1660 nM
TGI (UO-31 renal): 3140 nM
GI50 (HL-60(TB) leukemia): 187 nM
TGI (HL-60(TB) leukemia): 680 nM
GI50 (K-562 leukemia): 342 nM
TGI (K-562 leukemia): 1910 nM
GI50 (OVCAR-8 ovarian): 1570 nM
TGI (OVCAR-8 ovarian): 3070 nM
GI50 (HOP-18 NSCLC): 1820 nM
TGI (HOP-18 NSCLC): 3230 nM
GI50 (A549 NSCLC): 4930 nM
TGI (A549 NSCLC): > 53500 nM
GI50 (SNB-78 CNS): 2500 nM
TGI (SNB-78 CNS): > 100000 nM
GI50 (SK-MEL-5 melanoma): 811 nM
TGI (SK-MEL-5 melanoma): 2220 nM
GI50 (OVCAR-3 ovarian): 1760 nM
TGI (OVCAR-3 ovarian): 3150 nM
GI50 (U251 CNS): 1960 nM
TGI (U251 CNS): 6480 nM
GI50 (SN12C renal): 1650 nM
TGI (SN12C renal): 3260 nM
GI50 (MALME-3M melanoma): 1240 nM
TGI (MALME-3M melanoma): 2550 nM
GI50 (TK-10 renal): 1660 nM
TGI (TK-10 renal): 3070 nM
GI50 (SK-OV-3 ovarian): 4950 nM
TGI (SK-OV-3 ovarian): 9980 nM
GI50 (NCI-H460 lung): 3710 nM
TGI (NCI-H460 lung): > 20700 nM
GI50 (IGROV1 ovarian): 2260 nM
TGI (IGROV1 ovarian): 5960 nM
GI50 (ACHN renal): 1620 nM
TGI (ACHN renal): 3020 nM
GI50 (SK-MEL-2 melanoma): 1140 nM
TGI (SK-MEL-2 melanoma): 2390 nM
GI50 (HCC-2998 colon): 1680 nM
TGI (HCC-2998 colon): 3150 nM
GI50 (UACC-257 melanoma): 1270 nM
TGI (UACC-257 melanoma): 2720 nM
GI50 (LOX IMVI melanoma): 1450 nM
TGI (LOX IMVI melanoma): 2930 nM

OCCNCN(CNCCO)c1nc(N(CNCCO)CNCCO)nc(N(CNCCO)CNCCO)n1
outcome (SF-539 CNS): inactive
outcome (MDA-MB-231 breast): inactive
outcome (T-47D breast): inactive
outcome (HT29 colon): inactive
outcome (OVCAR-5 ovarian): inactive
outcome (HS 578T breast): inactive
outcome (HOP-92 NSCLC): inactive
outcome (NCI-H23 lung): inactive
outcome (SNB-19 CNS): inactive
outcome (SK-MEL-28 melanoma): inactive
outcome (SW-620 colon): inactive
TGI (KM12 colon): 550 nM
outcome (EKVX NSCLC): inactive
outcome (NCI/ADR-RES ovarian): inactive
TGI (SF-295 CNS): 147 nM
outcome (SF-295 CNS): inactive
outcome (DU-145 prostate): inactive
TGI (DLD-1 colon): 405 nM
TGI (MOLT-4 leukemia): 205 nM
outcome (MOLT-4 leukemia): inactive
TGI (KM20L2 colon): 322 nM
outcome (PC-3 prostate): inactive
outcome (MCF7 breast): inactive
TGI (COLO 205 colon): 87.7 nM
outcome (CAKI-1 renal): inactive
outcome (NCI-H226 lung): inactive
TGI (UO-31 renal): 250 nM
TGI (K-562 leukemia): 150 nM
outcome (OVCAR-8 ovarian): inactive
TGI (A549 NSCLC): 257 nM
outcome (A549 NSCLC): inactive
TGI (SNB-78 CNS): 203 nM
TGI (CCRF-CEM leukemia): 60.2 nM
outcome (OVCAR-3 ovarian): inactive
outcome (U251 CNS): inactive
outcome (SF-268 CNS): inactive
outcome (SN12C renal): inactive
TGI (NCI-H460 lung): 354 nM
outcome (NCI-H460 lung): inactive
outcome (IGROV1 ovarian): inactive
outcome (MDA-MB-435): inactive
outcome (ACHN renal): inactive
outcome (UACC-257 melanoma): inactive
